Patent US11607421B2, “Ethanolamine-based lipid biosynthetic compounds, method of making and use thereof” (Metanoi Therapeutics, Inc., priority 2016, dated 2023)
Values after ≈ are worked out from the molar mass of the structure shown.

Experiments:
in vivo = experiment: in vivo; design: species or system SD rats; conditions: SD, rat, po, 40 mg/kg
Excerpt: These formulations differ in pH and/or acid used to adjust the pH.

[1] = test system: p21, PARP1, Bcl-2, HIF1-α, Bax and Bid; experiment: Real time-PCR transcription levels; assay type: cell-based, human; conditions: PC-3 cells, 2 mg/ml Etn for 48 h
Protocol: (§1) OCR was measured using an oxygen electrode.
To test this hypothesis, HIF1-α expression levels were analyzed in Etn-treated tumors and PC-3 cells. […] DMOG, an HIF1-α activator, was then employed to test whether Etn-mediated cell death in PC-3 cells was associated with HIF1-α stabilization (active HIF1-α signaling).
RNA was extracted from control and 2 mg/ml Etn-treated PC-3 cells using a RNeasy kit from Qiagen (Hilden, Germany), and quantified using NanoDrop. Reverse transcription of RNA was performed for the first strand cDNA synthesis using a first strand synthesis kit (GoScript™ Reverse Transcription System-A5000) from Promega (Madison, Wis.). The quality of synthesized cDNAs was checked on an agarose gel. RT-PCR of cDNA samples (in duplicates) was performed using iQ™ SYBR® Green Supermix from Bio-Rad (Hercules, Calif.) as per manufacturer's instructions. The RT-PCR primers were designed manually, checked with the primer3 software and ordered from Sigma (St Louis, Mo.).

[2] = Acute toxicity, single oral limit dose; assay type: in vivo, Sprague-Dawley (SD) rats; conditions: single oral dose of 5 g/kg, five male and five female rats, monitored one week
[3] = test system: pRb, Cdk4, Cdk2, p21, c-PARP, Bim, Bcl-2; experiment: Immunoblot of cell lysates; assay type: cell-based, human; conditions: PC-3 cells, 2 mg/ml Etn for 48 h
Protocol: as §1
Proteins were resolved by polyacrylamide gel electrophoresis and transferred onto polyvinylidene difluoride membranes (Millipore, Billerica, Mass., USA). The membranes were blocked in Tris-buffered saline containing 0.05% Tween-20 and 5% fat-free dry milk and incubated first with primary antibodies and then with horseradish peroxidase-conjugated secondary antibodies. Specific proteins were visualized with enhanced chemiluminescence detection reagent according to the manufacturer's instructions (Pierce Biotechnology, Rockford, Ill., USA).

PC-3 cells [4] = experiment: Clonogenic cell survival (colony) assay; assay type: cell-based, human; conditions: 2 mg/ml, 48 h treatment, colonies after 10 days
Protocol: (§2) Next, a clonogenic cell survival assay was performed to assess the reproductive capacity of cells upon drug removal.
(§3) After 48 h, drug containing medium was replaced by medium containing MTT (tetrazolium bromide) at a concentration of 0.5 mg/ml. The yellow tetrazolium salt is reduced to insoluble purple formazan by viable cells. After 4 h of incubation in dark, formazan crystals produced by viable cells were dissolved by 200 μl DMSO and the amount of formazan crystals formed was quantified by recording the absorbance at 570 nm using multi-well plate reader. […] After 10 days, colonies were fixed with 4% formaldehyde, stained with crystal violet and counted.

PC-3 cells [5] = experiment: MTT cell proliferation assay; assay type: cell-based, human
Protocol: as §2, §3

CYP2D6 = CYP2D6 (Homo sapiens, UniProt P10635); experiment: CYP inhibition in human liver microsomes
Sequence of CYP2D6 (P10635 whole entry): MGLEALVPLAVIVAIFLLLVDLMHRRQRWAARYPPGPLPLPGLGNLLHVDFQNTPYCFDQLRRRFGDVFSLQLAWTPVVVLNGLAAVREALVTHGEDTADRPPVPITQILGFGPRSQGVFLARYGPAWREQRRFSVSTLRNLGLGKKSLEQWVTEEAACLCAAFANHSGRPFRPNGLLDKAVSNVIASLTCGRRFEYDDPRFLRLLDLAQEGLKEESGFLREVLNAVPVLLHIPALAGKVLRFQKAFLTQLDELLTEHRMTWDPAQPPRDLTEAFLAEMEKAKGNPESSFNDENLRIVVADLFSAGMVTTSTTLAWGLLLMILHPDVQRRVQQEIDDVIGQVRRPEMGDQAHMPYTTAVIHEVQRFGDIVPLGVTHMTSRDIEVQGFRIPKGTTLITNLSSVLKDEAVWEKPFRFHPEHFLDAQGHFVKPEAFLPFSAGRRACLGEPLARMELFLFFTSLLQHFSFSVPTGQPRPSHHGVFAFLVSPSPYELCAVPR

PC-3 cells [6] = experiment: Annexin V binding assay (flow cytometry); assay type: cell-based, human; conditions: 2.0 mg/ml Etn
Protocol: Annexin V binding assays were performed for control and 2.0 mg/ml Etn-treated cells along with counterstaining with 7-AAD to distinguish between dead and apoptotic cells. Annexin V positive cells were analyzed using flow cytometry. Representative scatter plots for control and Etn-treated cells stained with 7-AAD and annexin V are shown.
Annexin-V is known to bind to phosphatidylserine (PS) lipids which flip to the outer leaflet of plasma membrane in apoptotic cells (Vermes I. et al., J. Immunol. Methods, 1995, vol. 184, pp. 39-51). Annexin-V binding to PS is therefore a good indicator of cells undergoing apoptosis.

PC-3-luc = PC-3-luc prostate tumor xenograft
plasma proteins = experiment: Binding to proteins in plasma (ultrafiltration); assay type: in vitro ADME; conditions: pH 7.4, 37° C., 30 min
Protocol: Plasma from human, dog, rat and mouse were thawed and incubated at 37° C. The pH of the plasma was adjusted to 7.4 using dilute hydrochloric acid. A 5 μL aliquot of ethanolamine (2 mM) was spiked into 995 μL of plasma and incubated at 37° C. for 30 min in CO2 incubator. One mL aliquots of plasma were transferred to ultrafiltration tubes for analysis. All ultrafiltration tubes were centrifuged at 1000 g for 20 min. Samples from top and bottom chamber of ultrafiltration tube were collected. Equal volume of blank plasma and ultrafiltrate were mixed to ultrafiltrate and plasma to make the matrix same. Samples were processed by using acetonitrile containing internal standard and subjected to LC/MS/MS analysis.

HCT116 = HCT116 colon tumor xenograft; conditions: 40 mg/kg Etn oral, 2 weeks
[7] = 40 mg/kg Etn pH 5 (phosphoric acid), oral gavage, 4 weeks

NCCO [Etn, monoethanolamine]
Tmax (in vivo; female, pH 5): 19.8 min
AUC(0-t) (in vivo; female, pH 5, AUClast): 33800 ng·h/mL
Cmax (in vivo; female, pH 5, Cmax): 24100 ng/mL
Tmax (in vivo; female, pH 7.4): 19.8 min
AUC(0-t) (in vivo; female, pH 7.4, AUClast): 29000 ng·h/mL
Cmax (in vivo; female, pH 7.4, Cmax): 25000 ng/mL
Tmax (in vivo; male, pH 5): 19.8 min
AUC(0-t) (in vivo; male, pH 5, AUClast): 29500 ng·h/mL
Cmax (in vivo; male, pH 5, Cmax): 27100 ng/mL
Tmax (in vivo; male, pH 7.4): 19.8 min
AUC(0-t) (in vivo; male, pH 7.4, AUClast): 27300 ng·h/mL
Cmax (in vivo; male, pH 7.4, Cmax): 23700 ng/mL
reduction in HIF1-α transcript levels compared to control cells [1]: 50 fold
transcription levels of cell-cycle and apoptosis regulators [1]: upregulated p21, PARP1, Bax and Bid, and downregulated Bcl-2
acute toxicity [2]: all rats were alive and did not display any sign of distress or toxicity
protein expression of apoptosis regulators [3]: an increase in protein expression of proapoptotic markers (c-PARP and Bim) and a decrease in antiapoptotic molecules (Bcl-2)
protein expression of cell-cycle regulators [3]: downregulated protein expression of pRb, Cdk4, and Cdk2, and upregulated p21 expression
decrease in colony numbers compared to control cells (PC-3 cells [4]): ~97%
Etn-induced cell death with HIF1-α stabilization (PC-3 cells [5]; 35 μg/mL DMOG pre-treatment 4 h, then 1 and 2 mg/ml Etn with DMOG 48 h): more effective in reducing survival in PC-3 cells
reduction of cell survival (PC-3 cells [5]; 0.5 mg/ml Etn, 48 h, pH 7.4 (siRNA experiment)): ~38%
reduction of survival (PC-3 cells [5]; 0.5 mg/ml Etn, 48 h, range given for PC-3, DU145 and C4-2B together): 30-52%
reduction in cell proliferation (PC-3 cells [5]; 1 mg/ml Etn alone, 48 h, pH 7.4): ~33%
reduction in cell proliferation (PC-3 cells [5]; 1 mg/ml Etn in the presence of 1 μM CKI, 48 h, pH 7.4): ~17%
IC50 (PC-3 cells [5]; Homo sapiens, PC-3, 48 h, pH 7.4, MTT, 48 h, pH 7.4, read-out: half-maximal concentration (IC50)): ~880 µg/mL (≈ 14.4 mM)
half-maximal concentration (IC50) (PC-3 cells [5]; MTT, 48 h, pH 7.4): 880 µg/mL
IC50 (CYP2D6): > 100 µM
annexin-V positive cells (PC-3 cells [6]): ~25%
body weight (PC-3-luc; 40 mg/kg Etn oral, over the course of treatment, both models): no apparent changes in body weight
reduction in tumor volume vs untreated control tumors (PC-3-luc; [7]): ~67%
reduction in tumor weight vs untreated control tumors (PC-3-luc; [7]): ~55%
percent bound (plasma proteins; dog plasma): less than 85%
percent bound (plasma proteins; human plasma): less than 85%
percent bound (plasma proteins; mouse plasma): less than 85%
percent bound (plasma proteins; rat plasma): less than 85%
body weight (HCT116): did not change significantly
